A word on the Kd: it is the constant that tells how readily two partners part at equilibrium.

Common to all, as to assay: biolayer interferometry
What all share (type): binding

The target of experiment [1] is T1, PX domain containing serine/threonine kinase-like (PXK) (Homo sapiens, UniProt Q7Z7A4).
T1 sequence (Q7Z7A4 1-578): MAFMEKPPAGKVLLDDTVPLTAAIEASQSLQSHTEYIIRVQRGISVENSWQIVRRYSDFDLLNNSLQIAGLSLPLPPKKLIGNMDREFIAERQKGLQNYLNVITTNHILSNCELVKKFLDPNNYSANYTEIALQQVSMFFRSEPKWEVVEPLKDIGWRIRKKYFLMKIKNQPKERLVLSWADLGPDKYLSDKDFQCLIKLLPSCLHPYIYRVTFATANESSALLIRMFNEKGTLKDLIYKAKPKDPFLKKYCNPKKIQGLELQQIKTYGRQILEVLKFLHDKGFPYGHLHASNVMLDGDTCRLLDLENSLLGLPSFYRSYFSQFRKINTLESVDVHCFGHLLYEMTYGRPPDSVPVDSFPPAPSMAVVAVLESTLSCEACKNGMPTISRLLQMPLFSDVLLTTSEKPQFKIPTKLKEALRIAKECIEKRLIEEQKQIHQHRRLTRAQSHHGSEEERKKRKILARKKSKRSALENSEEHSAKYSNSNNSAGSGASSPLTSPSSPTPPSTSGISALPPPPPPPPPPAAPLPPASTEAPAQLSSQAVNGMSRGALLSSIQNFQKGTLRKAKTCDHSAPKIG

Experiment [2] concerns the target T2, metadherin (MTDH) (Homo sapiens, UniProt Q86UE4).
T2 sequence (Q86UE4 1-582): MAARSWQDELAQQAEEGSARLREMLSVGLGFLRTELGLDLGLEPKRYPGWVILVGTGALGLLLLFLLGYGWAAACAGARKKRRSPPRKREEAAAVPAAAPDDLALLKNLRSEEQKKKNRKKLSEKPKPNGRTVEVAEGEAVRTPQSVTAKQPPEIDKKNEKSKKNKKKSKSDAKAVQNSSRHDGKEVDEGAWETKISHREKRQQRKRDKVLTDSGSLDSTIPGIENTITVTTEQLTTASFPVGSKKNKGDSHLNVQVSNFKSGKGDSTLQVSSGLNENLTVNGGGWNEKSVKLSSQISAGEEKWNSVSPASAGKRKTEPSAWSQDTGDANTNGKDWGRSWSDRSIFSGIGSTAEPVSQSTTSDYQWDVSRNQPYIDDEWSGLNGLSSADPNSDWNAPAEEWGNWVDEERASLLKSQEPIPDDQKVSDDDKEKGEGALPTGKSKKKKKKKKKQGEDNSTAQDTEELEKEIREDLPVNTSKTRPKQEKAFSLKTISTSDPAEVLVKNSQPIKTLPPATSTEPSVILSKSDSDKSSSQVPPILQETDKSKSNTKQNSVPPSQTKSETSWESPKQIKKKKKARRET

For experiment [3], the target named is T2, metadherin (MTDH). The source holds these as a separate data set.
The target in experiment [4] is T1, PX domain containing serine/threonine kinase-like (PXK). The source holds these as a separate data set.

Each structure is given as a SMILES string. Like-named read-outs stand apart in the source and are kept apart here.

With `CC(=O)Oc1cc(OC(C)=O)c2c(c1)O[C@H](c1cc(OC(C)=O)c(OC(C)=O)c(OC(C)=O)c1)[C@H](OC(=O)c1cc(OC(C)=O)c(OC(C)=O)c(OC(C)=O)c1)C2` [ProEGCG], the Kd in experiment [1] amounted to 1.7 mM; on metadherin (MTDH) [2], 0.517 mM.
As for `O=C(O[C@@H]1Cc2c(O)cc(O)cc2O[C@@H]1c1cc(O)c(O)c(O)c1)c1cc(O)c(O)c(O)c1` [EGCG], the Kd at metadherin (MTDH) [3] was 0.00027 mM; in experiment [4], 2.42 mM.

The values above are taken from PMC10859541 (Journal of Pharmaceutical Analysis, 2023).
